Measurements as given in patent US10000535B2, “Template-fixed peptidomimetics” (POLYPHOR LTD., priority 2007, dated 2018).
Non-standard residues stand in square brackets, D forms with d. Residues, ends and D or L forms follow the SMILES beside them. Aze = O=C(O)[C@@H]1CCN1

Columns and labels:
Assay in all cases: Selectivity calcium flux assay, chemokine receptor panel
Assay type in all cases: cell-based
Conditions in all cases: at 10 μM
CCR6 = molecular target: T1, CCR6 (Homo sapiens, UniProt P51684)
T1 sequence (P51684 1-374): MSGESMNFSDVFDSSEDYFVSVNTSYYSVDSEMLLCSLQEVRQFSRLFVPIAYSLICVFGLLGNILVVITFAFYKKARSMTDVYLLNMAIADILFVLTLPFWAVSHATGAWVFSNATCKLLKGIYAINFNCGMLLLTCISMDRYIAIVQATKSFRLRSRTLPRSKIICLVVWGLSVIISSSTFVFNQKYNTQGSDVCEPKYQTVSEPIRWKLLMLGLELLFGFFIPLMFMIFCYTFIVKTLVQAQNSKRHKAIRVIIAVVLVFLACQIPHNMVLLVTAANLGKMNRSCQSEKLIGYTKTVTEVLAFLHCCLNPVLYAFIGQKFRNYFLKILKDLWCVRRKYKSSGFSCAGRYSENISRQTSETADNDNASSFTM
Protocol: (§1) Selectivity was measured using the calcium flux assay on a panel of human chemokine receptor bearing cell lines (CCR1, CCR2, CCR3, CCR4, CCR5, CCR6, CCR7, CCR8, CCR9, CCR10, CXCR1, CXCR2, CXCR2, CXCR4, CXCR6 and CXCCR1) using the same method as above

CCR5 = CCR5 (Homo sapiens, UniProt P51681)
Protocol: as §1

CXCR2 = molecular target: T2, CXCR2 (Homo sapiens, UniProt P25025)
T2 sequence (P25025 1-360): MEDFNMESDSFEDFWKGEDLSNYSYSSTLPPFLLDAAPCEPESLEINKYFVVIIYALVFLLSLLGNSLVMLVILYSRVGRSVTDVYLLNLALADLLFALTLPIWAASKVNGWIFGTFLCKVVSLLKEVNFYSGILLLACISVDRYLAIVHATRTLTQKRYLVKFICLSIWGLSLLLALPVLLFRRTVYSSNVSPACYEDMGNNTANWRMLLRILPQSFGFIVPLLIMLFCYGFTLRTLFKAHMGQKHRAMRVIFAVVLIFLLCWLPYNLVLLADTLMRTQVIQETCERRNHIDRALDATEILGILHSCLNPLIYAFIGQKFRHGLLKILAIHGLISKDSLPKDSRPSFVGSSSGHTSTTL
Protocol: as §1

CCR3 = molecular target: T3, CCR3 (Homo sapiens, UniProt P51677)
T3 sequence (P51677 1-355): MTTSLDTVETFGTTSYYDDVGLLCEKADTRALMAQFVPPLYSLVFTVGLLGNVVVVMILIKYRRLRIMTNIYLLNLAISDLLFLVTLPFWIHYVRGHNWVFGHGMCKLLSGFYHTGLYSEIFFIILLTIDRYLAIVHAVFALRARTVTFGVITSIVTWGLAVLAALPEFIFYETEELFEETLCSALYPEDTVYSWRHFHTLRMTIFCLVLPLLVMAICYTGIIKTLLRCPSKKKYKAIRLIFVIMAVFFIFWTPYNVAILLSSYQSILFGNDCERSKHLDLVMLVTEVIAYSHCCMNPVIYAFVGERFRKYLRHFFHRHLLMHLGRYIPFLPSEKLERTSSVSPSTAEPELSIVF
Protocol: as §1

CXCR6 = CXCR6 (Homo sapiens, UniProt O00574)
Protocol: as §1

CCR9 = molecular target: T4, CCR9 (Homo sapiens, UniProt P51686)
T4 sequence (P51686 1-369): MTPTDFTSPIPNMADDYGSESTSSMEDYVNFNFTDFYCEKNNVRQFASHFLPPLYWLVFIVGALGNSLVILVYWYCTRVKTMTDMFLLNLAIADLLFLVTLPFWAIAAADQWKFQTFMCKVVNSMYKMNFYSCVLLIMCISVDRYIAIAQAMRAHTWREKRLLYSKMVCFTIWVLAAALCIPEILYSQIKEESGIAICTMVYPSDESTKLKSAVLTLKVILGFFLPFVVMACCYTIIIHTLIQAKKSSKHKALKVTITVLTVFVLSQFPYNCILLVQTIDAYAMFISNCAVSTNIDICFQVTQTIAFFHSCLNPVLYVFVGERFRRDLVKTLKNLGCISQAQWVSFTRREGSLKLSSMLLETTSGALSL
Protocol: as §1

CXCR1 = molecular target: T5, CXCR1 (Homo sapiens, UniProt P25024)
T5 sequence (P25024 1-350): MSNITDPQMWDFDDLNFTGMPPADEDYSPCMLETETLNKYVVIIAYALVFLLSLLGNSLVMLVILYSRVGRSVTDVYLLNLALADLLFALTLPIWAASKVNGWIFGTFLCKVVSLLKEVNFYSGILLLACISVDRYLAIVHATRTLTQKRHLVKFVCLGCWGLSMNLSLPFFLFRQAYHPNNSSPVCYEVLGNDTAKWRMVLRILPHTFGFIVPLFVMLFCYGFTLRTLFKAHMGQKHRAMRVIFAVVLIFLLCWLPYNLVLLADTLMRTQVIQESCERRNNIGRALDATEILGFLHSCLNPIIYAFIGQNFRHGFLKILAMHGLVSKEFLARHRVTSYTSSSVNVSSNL
Protocol: as §1

CCR2 = CCR2 (Homo sapiens, UniProt P41597)
Protocol: as §1

CCR7 = molecular target: T6, CCR7 (Homo sapiens, UniProt P32248)
T6 sequence (P32248 25-378): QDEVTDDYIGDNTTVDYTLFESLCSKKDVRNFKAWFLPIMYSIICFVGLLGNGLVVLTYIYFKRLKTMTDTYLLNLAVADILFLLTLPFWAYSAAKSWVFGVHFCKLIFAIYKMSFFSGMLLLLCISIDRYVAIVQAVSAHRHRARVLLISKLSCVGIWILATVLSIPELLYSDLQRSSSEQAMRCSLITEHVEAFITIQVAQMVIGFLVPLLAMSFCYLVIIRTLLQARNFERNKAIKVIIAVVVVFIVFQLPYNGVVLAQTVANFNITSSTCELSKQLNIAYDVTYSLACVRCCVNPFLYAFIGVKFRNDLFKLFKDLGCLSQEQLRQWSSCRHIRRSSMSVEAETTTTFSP
Protocol: as §1

CCR8 = CCR8 (Homo sapiens, UniProt P51685)
Protocol: as §1

Chain of CXCR6 (O00574 whole entry): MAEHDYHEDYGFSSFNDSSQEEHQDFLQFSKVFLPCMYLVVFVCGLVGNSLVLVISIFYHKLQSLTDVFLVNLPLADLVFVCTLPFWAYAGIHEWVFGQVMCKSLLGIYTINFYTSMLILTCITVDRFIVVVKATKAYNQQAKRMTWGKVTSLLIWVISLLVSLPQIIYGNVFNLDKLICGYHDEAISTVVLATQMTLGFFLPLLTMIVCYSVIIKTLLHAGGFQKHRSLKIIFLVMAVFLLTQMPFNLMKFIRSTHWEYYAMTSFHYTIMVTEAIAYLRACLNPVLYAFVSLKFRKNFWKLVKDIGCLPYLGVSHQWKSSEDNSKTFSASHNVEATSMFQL
Chain of CCR5 (P51681 whole entry): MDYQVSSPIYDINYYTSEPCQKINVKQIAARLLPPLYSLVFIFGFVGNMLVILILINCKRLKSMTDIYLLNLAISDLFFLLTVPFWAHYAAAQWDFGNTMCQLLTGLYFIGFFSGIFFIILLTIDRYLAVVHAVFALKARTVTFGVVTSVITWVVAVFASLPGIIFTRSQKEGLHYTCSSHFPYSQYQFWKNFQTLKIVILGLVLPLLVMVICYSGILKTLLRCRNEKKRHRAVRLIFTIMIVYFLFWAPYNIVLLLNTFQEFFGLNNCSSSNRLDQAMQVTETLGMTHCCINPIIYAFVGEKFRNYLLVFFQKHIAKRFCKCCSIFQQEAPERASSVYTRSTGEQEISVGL
Chain of CCR8 (P51685 whole entry): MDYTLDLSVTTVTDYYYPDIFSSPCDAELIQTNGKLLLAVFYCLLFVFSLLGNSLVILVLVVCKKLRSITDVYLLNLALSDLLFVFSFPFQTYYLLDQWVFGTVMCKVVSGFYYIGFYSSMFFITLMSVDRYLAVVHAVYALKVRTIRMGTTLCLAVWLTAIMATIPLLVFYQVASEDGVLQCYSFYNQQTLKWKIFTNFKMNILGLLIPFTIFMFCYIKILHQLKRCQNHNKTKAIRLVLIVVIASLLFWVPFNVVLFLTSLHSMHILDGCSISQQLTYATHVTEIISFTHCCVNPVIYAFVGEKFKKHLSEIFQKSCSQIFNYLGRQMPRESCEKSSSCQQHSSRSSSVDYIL
Chain of CCR2 (P41597 whole entry): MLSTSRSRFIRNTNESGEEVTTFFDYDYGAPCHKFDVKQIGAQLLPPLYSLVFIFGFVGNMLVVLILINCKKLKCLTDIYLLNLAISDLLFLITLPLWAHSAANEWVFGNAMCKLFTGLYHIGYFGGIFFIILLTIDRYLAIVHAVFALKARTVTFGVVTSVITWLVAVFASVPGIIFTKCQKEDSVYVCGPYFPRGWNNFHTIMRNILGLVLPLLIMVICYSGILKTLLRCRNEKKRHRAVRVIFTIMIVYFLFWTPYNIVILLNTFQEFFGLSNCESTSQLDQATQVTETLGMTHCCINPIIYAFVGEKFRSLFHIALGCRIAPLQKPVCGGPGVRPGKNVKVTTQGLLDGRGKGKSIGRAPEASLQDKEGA

Row | selectivity against CCR6 (CCR6) | selectivity against CCR5 (CCR5) | selectivity against CXCR2 (CXCR2) | selectivity against CCR3 (CCR3) | selectivity against CXCR6 (CXCR6) | selectivity against CCR9 (CCR9) | selectivity against CXCR1 (CXCR1) | selectivity against CCR2 (CCR2) | selectivity against CCR7 (CCR7) | selectivity against CCR8 (CCR8) | SMILES
1 | highly selective | highly selective | highly selective | highly selective | highly selective | highly selective | highly selective | highly selective | highly selective | highly selective | N=C(N)NCCC[C@@H]1NC(=O)[C@H](Cc2c[nH]c3ccccc23)NC(=O)[C@H](Cc2ccc(O)cc2)NC(=O)[C@@H]2CCN2C(=O)[C@H]2CCCN2C(=O)CNC1=O [Example 15] (cyclo(YWRG[dP][Aze]))
2 | highly selective | highly selective | highly selective | highly selective | highly selective | highly selective | highly selective | highly selective | highly selective | highly selective | C[C@@H]1NC(=O)[C@H](CCCNC(=N)N)NC(=O)[C@H](Cc2c[nH]c3ccccc23)NC(=O)[C@H](Cc2ccc(O)cc2)NC(=O)[C@@H]2CCN2C(=O)[C@H]2CCCN2C1=O [Example 16] (cyclo(YWRA[dP][Aze]))
